Assay results reported in patent US20240327852A1, “METHODS OF TRANSFORMATION” (SYNGENTA CROP PROTECTION AG, priority 2019, published 2024).

How the values were obtained:
Format in all cases: in vivo
[1] = tested on: soybean (Glycine max) explants; assay: Semi-in-planta soybean transformation, greenhouse bensulfuron-methyl selection for ALS marker, Taqman assay of recovered shoots; conditions: for Escape rate / Number of events / TF: 3 weeks greenhouse selection
Experimental: (§1) Sterilized mature soybean (Glycine max) seeds were used. Prior to Agrobacterium inoculation, seeds were soaked in sterilized H2O or liquid medium Soy1 for overnight (12-18 hours) at 22-24° C. Liquid medium Soy 1 contains 3.1 g/L Gamborg's B5 basal medium and 2 mg/L BAP
(§2) The seed coat was removed from the soaked seed. One of the cotyledons and both primary leaves were carefully removed and discarded. Next, the region containing the epicotyl, apical meristem and the cotyledonary node were wounded by making several cuts with the sharp end of scalpel blade.
(§3) Agrobacterium tumefaciens strain [Chry5d3 recA−] was used. The Agrobacterium harbored a binary vector containing a selectable marker and gene of interest, specifically construct 23093 containing EPSPS selectable marker driven by translation elongation factor EF-1 alpha/Tu promoter and AmCyan gene driven by Cestrum Yellow leaf curl virus promoter (prCMP), construct18891 containing codon-optimized Acetolactate synthase (ALS) double mutant (P191A, W568L) from Nicotiana tabacum for soybean and AmCyan gene driven by prCMP, and construct 22296 containing codon-optimized Acetolactate synthase (ALS) double mutant (P191A, W568L) from Nicotiana tabacum for soybean driven by translation elongation factor EF-1 alpha/Tu promoter, including the first intron and neighboring 5′-UTR, from soybean (Williams 82) prGmEF-02. Agrobacterium culture was streaked from −80° C. from glycerol stock onto YP plates containing 100 mg/L ampicillin and 500 mg/L spectinomycin appropriate antibiotics and grown in a 23° C. incubator. Before inoculation with explants, Agrobacterium cells were collected from the plate and were uniformly suspended in liquid infection medium SoyInf in a sterile disposable 50 ml centrifuge tube and diluted to OD A660 of approximately 0.3 to 0.6. A final concentration of 40-80 mg/L (200-400 uM) acetosyringone was added to induce virulence gene expression. Dithiothreitol (DTT) was added to a final concentration of 150 μg/ml. SoyInf contains 1.1 g/L MS basal salt mixture, 20 g/L sucrose, 10 g/L glucose, 4 g/L MES, 1 ml/L Gamborg's B5 vitamins (1000×) and 2 mg/L zeatin riboside.
(§4) The wounded explants were immediately infected with Agrobacterium by immersing them with the Agrobacterium suspension, and then incubated for 18 hours in dark at room temperature. After infection, the explants were removed from the Agrobacterium suspension and transferred to petri dishes for co-cultivation in an airtight plastic container. The co-cultivation plates were incubated for 3-5 days at 22±1° C. in the dark, with explants placed adaxial side up.
(§5) The explants were transplanted to soil for further selection and development of transgenic shoots after immersed in Soy2 medium for 2 day and in Soy2 medium with 2 μM bensulfuron-methyl for 5 days. The selection is performed for three weeks in GH by application with various concentrations of bensulfuron-methyl using mounted cotton ball or daily liquid spay methods. The recovered shoots from each treatment were subjected for Taqman assay to confirm the transgenic frequency. The application solution contains bensulfuron-methyl, 1 g/L MES and BAP (2 mg./L for first week, and 1 mg/L for second and third weeks, or 2 mg/L or 1 mg/l for three weeks). Alternatively, the transplanted explants in soil can be directly spayed with selection solution containing commercial herbicide Ecomazayr (1-8 μM isopropylamine salt of imazapyr), 1-2 mg/L BAP and 1 g/L MES for 3 weeks.
To obtain an optimal selection conditions and methods for ALS selection, a side-by-side comparison experiment was conducted. Transgenic events can be recovered without selection in Greenhouse at more than 18% transformation frequency with 73% escape rate. […] By using cotton ball method for application of bensulfuron-methyl, high transformation frequency (˜40%) with high single copy event rate (50%) was obtained. […]

[2] = tested on: soybean (Glycine max) explants; assay: Comparison of greenhouse selection effectiveness between BSU and Ecomazayr for ALS selectable marker
Experimental: as §5
An experiment was conducted to compare the selection effectiveness in greenhouse between BSU and commercial herbicide Ecomazayr for ALS selectable marker using current transformation method.

[3] = tested on: soybean (Glycine max) explants; assay: Semi-in-planta soybean transformation, greenhouse glyphosate selection for EPSPS marker, Taqman assay of recovered shoots; conditions: 3 weeks greenhouse selection, 48 explants
Experimental: as §1, §2, §3, §4
After 2 day in Soy2 medium and 5 days in Soy2 medium with 100 μM glyphosate, the explants were transplanted to soil for further selection and development of transgenic shoots. The selection is performed for three weeks in GH by application with various concentrations of glyphosate using mounted cotton ball or daily liquid spay methods. The recovered shoots from each treatment were subjected for Taqman assay to confirm the transgenic frequency. The application solution contains glyphosate, 1 g/L MES and BAP (2 mg./L for first week, and 1 mg/L for second and third weeks, or 2 mg/L or 1 mg/l for three weeks).
To obtain an optimal selection conditions and methods for EPSPS selection, a side-by-side comparison experiment was conducted. Transgenic events can be recovered without selection in Greenhouse at 18% transformation frequency with more than 80% escape rate. […] Similar results can also be achieved by daily spay of 150 μM or more of glyphosate with few escapes.

[4] = cotton ball, 3 μM bensulfuron-methyl, 40 explants
[5] = cotton ball, 6 μM bensulfuron-methyl, 48 explants
[6] = cotton ball, 9 μM bensulfuron-methyl, 48 explants
[7] = daily spray, 3 μM bensulfuron-methyl, 48 explants
[8] = daily spray, 4 μM bensulfuron-methyl, 48 explants
[9] = daily spray, 5 μM bensulfuron-methyl, 48 explants
[10] = daily spray, 6 μM bensulfuron-methyl, 48 explants
[11] = daily spray, 7 μM bensulfuron-methyl, 48 explants
[12] = daily spray, 8 μM bensulfuron-methyl, 48 explants
[13] = daily spray, 9 μM bensulfuron-methyl, 48 explants
[14] = daily spray, 10 μM bensulfuron-methyl, 48 explants
[15] = greenhouse selection 3 μM BSU, 56 explants
[16] = greenhouse selection 1 μM imazapyr, 56 explants
[17] = greenhouse selection 2 μM imazapyr, 56 explants
[18] = greenhouse selection 3 μM imazapyr, 56 explants
[19] = greenhouse selection 4 μM imazapyr, 56 explants
[20] = greenhouse selection 5 μM imazapyr, 56 explants
[21] = greenhouse selection 6 μM imazapyr, 56 explants
[22] = greenhouse selection 7 μM imazapyr, 52 explants
[23] = greenhouse selection 8 μM imazapyr, 54 explants

SMILES: COC(=O)c1ccccc1CS(=O)(=O)NC(=O)Nc1nc(OC)cc(OC)n1 [bensulfuron-methyl]
- escape events recovered ([1]; 3 μM or higher concentrations of bensulfuron-methyl): No escape event
- Escape rate [1, 4]: 0.0%
- Number of events [1, 4]: 16
- TF [1, 4]: 40.0%
- Escape rate [1, 5]: 0.0%
- Number of events [1, 5]: 13
- TF [1, 5]: 27.1%
- Escape rate [1, 6]: 0.0%
- Number of events [1, 6]: 9
- TF [1, 6]: 18.8%
- Escape rate [1, 7]: 0.0%
- Number of events [1, 7]: 18
- TF [1, 7]: 37.5%
- Escape rate [1, 8]: 0.0%
- Number of events [1, 8]: 10
- TF [1, 8]: 20.8%
- Escape rate [1, 9]: 0.0%
- Number of events [1, 9]: 10
- TF [1, 9]: 20.8%
- Escape rate [1, 10]: 0.0%
- Number of events [1, 10]: 10
- TF [1, 10]: 20.8%
- Escape rate [1, 11]: 0.0%
- Number of events [1, 11]: 6
- TF [1, 11]: 12.5%
- Escape rate [1, 12]: 0.0%
- Number of events [1, 12]: 11
- TF [1, 12]: 22.9%
- Escape rate [1, 13]: 0.0%
- Number of events [1, 13]: 12
- TF [1, 13]: 25.0%
- Escape rate [1, 14]: 0.0%
- Number of events [1, 14]: 8
- TF [1, 14]: 16.7%
- Number of escapes [2, 15]: 0
- Number of events [2, 15]: 12
- Transformation frequency (%) [2, 15]: 21.4%

SMILES: O=C(O)CNCP(=O)(O)O [glyphosate]
- Escape rate ([3]; cotton ball, 100 μM glyphosate): 2.1%
- Number of events ([3]; cotton ball, 100 μM glyphosate): 16
- Transformation Frequency ([3]; cotton ball, 100 μM glyphosate): 33.3%
- Escape rate ([3]; cotton ball, 125 μM glyphosate): 0.0%
- Number of events ([3]; cotton ball, 125 μM glyphosate): 25
- Transformation Frequency ([3]; cotton ball, 125 μM glyphosate): 52.1%
- Escape rate ([3]; cotton ball, 150 μM glyphosate): 0.0%
- Number of events ([3]; cotton ball, 150 μM glyphosate): 24
- Transformation Frequency ([3]; cotton ball, 150 μM glyphosate): 50.0%
- Number of events ([3]; cotton ball, 175 μM glyphosate): 23
- Transformation Frequency ([3]; cotton ball, 175 μM glyphosate): 47.9%
- Escape rate ([3]; daily spray, 100 μM glyphosate): 2.1%
- Number of events ([3]; daily spray, 100 μM glyphosate): 11
- Transformation Frequency ([3]; daily spray, 100 μM glyphosate): 22.9%
- Escape rate ([3]; daily spray, 125 μM glyphosate): 6.3%
- Number of events ([3]; daily spray, 125 μM glyphosate): 13
- Transformation Frequency ([3]; daily spray, 125 μM glyphosate): 27.1%
- Escape rate ([3]; daily spray, 150 μM glyphosate): 2.1%
- Number of events ([3]; daily spray, 150 μM glyphosate): 20
- Transformation Frequency ([3]; daily spray, 150 μM glyphosate): 41.7%
- Escape rate ([3]; daily spray, 175 μM glyphosate): 6.3%
- Number of events ([3]; daily spray, 175 μM glyphosate): 22
- Transformation Frequency ([3]; daily spray, 175 μM glyphosate): 45.8%
- Escape rate ([3]; daily spray, 200 μM glyphosate): 6.3%
- Number of events ([3]; daily spray, 200 μM glyphosate): 20
- Transformation Frequency ([3]; daily spray, 200 μM glyphosate): 41.7%
- Escape rate ([3]; daily spray, 250 μM glyphosate): 4.2%
- Number of events ([3]; daily spray, 250 μM glyphosate): 15
- Transformation Frequency ([3]; daily spray, 250 μM glyphosate): 31.3%
- Escape rate ([3]; daily spray, 300 μM glyphosate): 2.1%
- Number of events ([3]; daily spray, 300 μM glyphosate): 23
- Transformation Frequency ([3]; daily spray, 300 μM glyphosate): 47.9%

SMILES: CC(C)C1(C)N=C(c2ncccc2C(=O)O)NC1=O (stereo not shown) [imazapyr]
- selection effectiveness in greenhouse ([2]; ALS selectable marker, recovery of ALS transgenic plants): as effective as BSU
- Number of escapes [2, 16]: 1
- Number of events [2, 16]: 15
- Transformation frequency (%) [2, 16]: 26.8%
- Number of escapes [2, 17]: 0
- Number of events [2, 17]: 12
- Transformation frequency (%) [2, 17]: 21.4%
- Number of escapes [2, 18]: 0
- Number of events [2, 18]: 20
- Transformation frequency (%) [2, 18]: 35.7%
- Number of escapes [2, 19]: 0
- Number of events [2, 19]: 14
- Transformation frequency (%) [2, 19]: 25.0%
- Number of escapes [2, 20]: 0
- Number of events [2, 20]: 8
- Transformation frequency (%) [2, 20]: 14.3%
- Number of escapes [2, 21]: 0
- Number of events [2, 21]: 10
- Transformation frequency (%) [2, 21]: 17.9%
- Number of escapes [2, 22]: 0
- Number of events [2, 22]: 10
- Transformation frequency (%) [2, 22]: 19.2%
- Number of escapes [2, 23]: 0
- Number of events [2, 23]: 10
- Transformation frequency (%) [2, 23]: 18.5%
